Biological target: T1, human DGAT1 (Homo sapiens, UniProt O75907)
T1 construct: made in house; host or cells: insect cells (e.g., sf9, sf21, or High Five), Bac-to-Bac baculovirus; total cell membranes
T1 sequence (O75907 1-488): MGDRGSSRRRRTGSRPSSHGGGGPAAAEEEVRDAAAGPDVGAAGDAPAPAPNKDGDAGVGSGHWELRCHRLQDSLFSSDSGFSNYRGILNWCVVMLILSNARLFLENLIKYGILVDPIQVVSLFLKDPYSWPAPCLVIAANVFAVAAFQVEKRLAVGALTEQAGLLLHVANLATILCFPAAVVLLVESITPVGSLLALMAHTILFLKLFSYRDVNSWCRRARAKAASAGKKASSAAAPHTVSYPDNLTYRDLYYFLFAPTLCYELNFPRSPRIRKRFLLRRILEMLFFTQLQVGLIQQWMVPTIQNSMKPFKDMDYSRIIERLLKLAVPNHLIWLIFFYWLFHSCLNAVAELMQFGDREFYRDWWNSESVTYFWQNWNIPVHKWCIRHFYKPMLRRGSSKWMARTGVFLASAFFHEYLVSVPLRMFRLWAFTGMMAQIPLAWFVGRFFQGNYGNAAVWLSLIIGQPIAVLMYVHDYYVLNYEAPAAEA
Assay: DGAT Scintillation Proximity Assay (SPA) with membranes of insect cells expressing human flagtag DGAT1
Format: biochemical
Settings: DGAT inhibition
Procedure: In such an assay human DGAT1 is cloned from a human liver cDNA library. PCR is used to add a restriction site and flag epitope at the most 5′ end and a restriction site at the 3′ end of the sequence. Thereafter, human flagtag (FT) DGAT1 baculovirus may be generated using a Bac-to-Bac Baculovirus Expression System® (Invitrogen). Insect cells (e.g., sf9, sf21, or High Five) are infected for 24 to 72 h and collected by centrifugation. Cell pellets are resuspended in homogenization buffer and lysed using a homogenization device, such as a Microfluidizer. Total cell membranes are collected by ultracentrifugation at 45,000 rpm for 1 h.
A small aliquot (0.2 μg/well) of membrane is incubated with 10 μM compound or mercuric chloride (as positive control for inhibition) in the presence of enzyme substrate, dioleoyl glycerol (200 μM) in 384 well plates, final volume 50 μL per well. […] The reaction is stopped by adding Wheat Germ Agglutinin (WGA) SPA beads (0.2 mg) in mercuric chloride. Cell membranes are allowed to couple to the beads overnight. The signal can be measured using, for example, a Chemiluminescence Image Plate Reader (CLIPR) or TopCount device.

IC50 [nM]	SMILES
> 500	CCCc1c(C(=O)OCC)c(C(=O)OCC)c2c(-c3ccccc3)cc(N3CCC3)nn12 [Example 95, 2-Azetidin-1-yl-4-phenyl-7-propyl-pyrrolo[1,2-b]pyridazine-5,6-dicarboxylic acid diethyl ester]
> 500	CCCc1c(-c2ncc(-c3ccccc3)o2)c(C(=O)OCC)c2c(-c3ccccc3)cc(N3CCOCC3)nn12 [Example 80, 2-Morpholin-4-yl-4-phenyl-6-(5-phenyl-oxazol-2-yl)-7-propyl-pyrrolo[1,2-b]pyridazine-5-carboxylic acid ethyl ester]
> 500	CCCc1c(-c2nnc(C)o2)c(C(=O)OCC)c2c(-c3ccccc3)cc(N3CCOCC3)nn12 [Example 78, 6-(5-Methyl-[1,3,4]oxadiazol-2-yl)-2-morpholin-4-yl-4-phenyl-7-propyl-pyrrolo[1,2-b]pyridazine-5-carboxylic acid ethyl ester]

Second part, the molecule before the results:

SMILES	IC50 [nM]
CCCc1c(C(=O)OCC)c(C(=O)OCC)c2c(C3CCCCC3)cc(N3CCOCC3)nn12 [Example 90, 4-Cyclohexyl-2-morpholin-4-yl-7-propyl-pyrrolo[1,2-b]pyridazine-5,6-dicarboxylic acid diethyl ester]	< 500
CCOC(=O)c1c(C(=O)OCC)c2c(-c3ccccc3)cc(N3CCOCC3)nn2c1C [Example 24, 7-Methyl-2-morpholin-4-yl-4-phenyl-pyrrolo[1,2-b]pyridazine-5,6-dicarboxylic acid diethyl ester]	> 500
CCOC(=O)c1c(C(=O)OCC)c2c(-c3ccccc3)cc(N3CCOCC3)nn2c1C1CC1 [Example 8, 7-Cyclopropyl-2-morpholin-4-yl-4-phenyl-pyrrolo[1,2-b]pyridazine-5,6-dicarboxylic acid diethyl ester]	> 500
CCCc1c(C(=O)OCC)c(C(=O)OCC)c2c(-c3ccccc3)cc(N3CCCC3)nn12 [Example 96, 4-Phenyl-7-propyl-2-pyrrolidin-1-yl-pyrrolo[1,2-b]pyridazine-5,6-dicarboxylic acid diethyl ester]	< 500
